Assay results reported in patent publication US20100152434A1, “Protein Kinase-binding Nucleosides and Associated Methods” (priority 2007, published 2010).

Columns and labels:
Test in all cases: SignalChem radioisotope protein kinase assay
Assay type in all cases: biochemical
Details in all cases: 5 μl of 100 μM stock solution in 25 μl
[1] = molecular target: LCK (Homo sapiens, UniProt P06239)
Description: (§1) The various protein kinase targets to be employed in the kinase profiling assay were cloned, expressed and purified in-house at SignalChem (Richmond, BC, Canada) using proprietary methods. Quality control testing is routinely performed on each of the SignalChem targets to ensure compliance to acceptable standards. Protein substrates employed in the target profiling process were synthesized internally. ^33P-ATP was purchased from PerkinElmer. All other materials were of standard grade. Compound 10 (FIG. 4) was supplied to SignalChem in a powder form. It was reconstituted in DMSO to form a stock solution which was then diluted with 10% DMSO to form a working stock solution (100 μM) that was then profiled against the various protein kinase targets. The assay conditions for the various protein kinase targets were optimized to yield acceptable enzymatic activity. In addition, the assays were optimized to give high signal-to-noise ratio.
(§2) SignalChem uses a radioisotope assay format for profiling evaluation of protein kinase targets. Protein kinase assays were performed in triplicate at ambient temperature for 20-40 min (depending on the target) in a final volume of 25 μl according to the following assay reaction recipe: • Component 1: 5 μl of diluted active protein kinase target (˜10-40 nM final protein concentration in the assay) • Component 2: 5 μl of stock solution of substrate (1-5 μg of peptide or protein substrate) • Component 3: 5 μl of kinase assay buffer or protein kinase activator in kinase assay buffer • Component 4: 5 μl of Compound 10 (100 μM stock solution) or 10% DMSO • Component 5: 5 μl of 33P-ATP (25 μM stock solution, 0.8 μCi)
(§3) The assay was initiated by the addition of ^33P-ATP and the reaction mixture incubated at ambient temperature for 20-40 minutes, depending on the protein kinase target. After the incubation period, the assay was terminated by spotting 10 μl of the reaction mixture onto a Millipore Multiscreen plate. The Millipore Multiscreen plate was washed 3 times for approximately 15 minutes each in a 1% phosphoric acid solution. The radioactivity on the P81 plate was counted in the presence of scintillation fluid in a Trilux scintillation counter. Blank control, which included all the assay components except the addition of the appropriate substrate (replaced with equal volume of assay dilution buffer), was set up for each protein kinase target. The corrected activity for each protein kinase target was determined by removing the blank control value.

[2] = molecular target: MARK3 (Homo sapiens, UniProt P27448)
Description: as §1, §2, §3

[3] = molecular target: PAK3 (Homo sapiens, UniProt O75914)
Description: as §1, §2, §3

[4] = molecular target: FMS (Homo sapiens, UniProt P07333)
Description: as §1, §2, §3

[5] = molecular target: LYN B (Homo sapiens, UniProt P07948)
Description: as §1, §2, §3

[6] = molecular target: FAK (Homo sapiens, UniProt Q05397)
Description: as §1, §2, §3

[7] = molecular target: ERK2 (Homo sapiens, UniProt P28482)
Description: as §1, §2, §3

[8] = molecular target: p38α (Homo sapiens, UniProt Q16539)
Description: as §1, §2, §3

[9] = molecular target: PAK4 (Homo sapiens, UniProt O96013)
Description: as §1, §2, §3

[10] = molecular target: p70S6K (Homo sapiens, UniProt P23443)
Description: as §1, §2, §3

[11] = molecular target: T1, PKCα (Homo sapiens, UniProt P17252)
T1 construct: purchased SignalChem
Description: as §1, §2, §3

[12] = molecular target: T2, SGK1 (Homo sapiens, UniProt O00141)
T2 construct: purchased SignalChem
Description: as §1, §2, §3

[13] = molecular target: PAK2 (Homo sapiens, UniProt Q13177)
Description: as §1, §2, §3

[14] = molecular target: PDGFRα (Homo sapiens, UniProt P16234)
Description: as §1, §2, §3

[15] = molecular target: AKT2 (Homo sapiens, UniProt P31751)
Description: as §1, §2, §3

[16] = molecular target: MEK1 (Homo sapiens, UniProt Q02750)
Description: as §1, §2, §3

[17] = molecular target: AKT3 (Homo sapiens, UniProt Q9Y243)
Description: as §1, §2, §3

[18] = molecular target: BRK (Homo sapiens, UniProt Q13882)
Description: as §1, §2, §3

[19] = molecular target: T3, RSK1 (Homo sapiens, UniProt Q15418)
T3 construct: purchased SignalChem
Description: as §1, §2, §3

[20] = molecular target: AURORA B (Homo sapiens, UniProt Q96GD4)
Description: as §1, §2, §3

[21] = molecular target: HER2 (Homo sapiens, UniProt P04626)
Description: as §1, §2, §3

[22] = molecular target: ERK1 (Homo sapiens, UniProt P27361)
Description: as §1, §2, §3

[23] = molecular target: PDK1 (Homo sapiens, UniProt O15530)
Description: as §1, §2, §3

[24] = molecular target: MST4 (Homo sapiens, UniProt Q9P289)
Description: as §1, §2, §3

[25] = molecular target: FER (Homo sapiens, UniProt P16591)
Description: as §1, §2, §3

[26] = molecular target: T4, SRC (Homo sapiens, UniProt P12931)
T4 construct: purchased SignalChem
Description: as §1, §2, §3

[27] = molecular target: ALK4 (Homo sapiens, UniProt P36896)
Description: as §1, §2, §3

[28] = molecular target: AKT1 (Homo sapiens, UniProt P31749)
Description: as §1, §2, §3

[29] = molecular target: p38δ (Homo sapiens, UniProt O15264)
Description: as §1, §2, §3

BRK, sequence (Q13882 whole entry, species assumed): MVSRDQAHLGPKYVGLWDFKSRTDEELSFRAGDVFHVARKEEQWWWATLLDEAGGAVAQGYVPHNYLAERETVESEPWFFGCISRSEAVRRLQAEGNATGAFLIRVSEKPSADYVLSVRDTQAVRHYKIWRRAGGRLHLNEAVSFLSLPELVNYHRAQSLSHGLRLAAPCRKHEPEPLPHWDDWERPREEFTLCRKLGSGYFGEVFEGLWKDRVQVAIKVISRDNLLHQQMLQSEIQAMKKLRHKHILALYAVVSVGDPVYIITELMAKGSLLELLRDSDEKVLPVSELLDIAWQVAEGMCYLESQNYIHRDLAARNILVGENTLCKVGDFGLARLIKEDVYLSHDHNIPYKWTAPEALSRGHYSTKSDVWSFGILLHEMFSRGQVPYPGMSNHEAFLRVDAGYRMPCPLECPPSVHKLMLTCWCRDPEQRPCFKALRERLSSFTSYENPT
PAK4, sequence (O96013 whole entry, species assumed): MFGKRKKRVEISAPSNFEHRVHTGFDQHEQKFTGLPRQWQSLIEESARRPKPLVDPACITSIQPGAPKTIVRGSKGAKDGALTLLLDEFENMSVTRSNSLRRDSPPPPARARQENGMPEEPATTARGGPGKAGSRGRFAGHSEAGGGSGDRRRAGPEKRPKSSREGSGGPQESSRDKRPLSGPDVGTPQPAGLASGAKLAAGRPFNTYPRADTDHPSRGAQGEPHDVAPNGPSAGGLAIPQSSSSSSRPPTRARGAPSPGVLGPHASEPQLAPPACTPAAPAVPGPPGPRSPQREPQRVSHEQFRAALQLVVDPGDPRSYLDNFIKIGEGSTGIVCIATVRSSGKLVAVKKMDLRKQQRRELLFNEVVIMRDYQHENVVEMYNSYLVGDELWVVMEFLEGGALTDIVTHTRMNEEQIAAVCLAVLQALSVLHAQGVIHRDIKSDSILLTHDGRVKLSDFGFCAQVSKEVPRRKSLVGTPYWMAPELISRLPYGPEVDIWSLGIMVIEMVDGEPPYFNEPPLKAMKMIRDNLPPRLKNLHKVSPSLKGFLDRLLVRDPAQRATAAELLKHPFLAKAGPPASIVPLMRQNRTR
ERK1, sequence (P27361 whole entry, species assumed): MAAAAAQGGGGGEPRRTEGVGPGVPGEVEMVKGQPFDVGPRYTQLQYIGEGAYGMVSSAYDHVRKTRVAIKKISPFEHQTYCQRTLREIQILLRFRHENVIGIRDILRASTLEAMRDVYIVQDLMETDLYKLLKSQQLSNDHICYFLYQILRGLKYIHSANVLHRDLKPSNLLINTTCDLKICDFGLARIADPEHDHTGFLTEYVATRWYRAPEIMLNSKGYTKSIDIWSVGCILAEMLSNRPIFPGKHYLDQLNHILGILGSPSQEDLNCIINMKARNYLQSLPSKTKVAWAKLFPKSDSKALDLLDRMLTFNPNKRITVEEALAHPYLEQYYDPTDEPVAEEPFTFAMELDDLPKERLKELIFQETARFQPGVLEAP
AKT1, sequence (P31749 whole entry, species assumed): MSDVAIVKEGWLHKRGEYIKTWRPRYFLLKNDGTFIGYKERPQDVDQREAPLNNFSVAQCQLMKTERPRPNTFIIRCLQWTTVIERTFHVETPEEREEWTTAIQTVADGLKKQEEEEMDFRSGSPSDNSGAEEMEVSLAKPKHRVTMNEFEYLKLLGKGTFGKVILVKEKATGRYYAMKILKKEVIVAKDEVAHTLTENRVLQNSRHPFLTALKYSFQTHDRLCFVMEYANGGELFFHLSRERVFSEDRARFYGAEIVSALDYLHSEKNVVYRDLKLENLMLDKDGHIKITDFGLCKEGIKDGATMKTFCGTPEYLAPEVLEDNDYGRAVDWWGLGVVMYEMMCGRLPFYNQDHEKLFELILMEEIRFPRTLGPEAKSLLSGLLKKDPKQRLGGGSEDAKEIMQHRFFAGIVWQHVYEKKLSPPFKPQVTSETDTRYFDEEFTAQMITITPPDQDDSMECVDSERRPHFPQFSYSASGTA
p38δ, sequence (O15264 whole entry): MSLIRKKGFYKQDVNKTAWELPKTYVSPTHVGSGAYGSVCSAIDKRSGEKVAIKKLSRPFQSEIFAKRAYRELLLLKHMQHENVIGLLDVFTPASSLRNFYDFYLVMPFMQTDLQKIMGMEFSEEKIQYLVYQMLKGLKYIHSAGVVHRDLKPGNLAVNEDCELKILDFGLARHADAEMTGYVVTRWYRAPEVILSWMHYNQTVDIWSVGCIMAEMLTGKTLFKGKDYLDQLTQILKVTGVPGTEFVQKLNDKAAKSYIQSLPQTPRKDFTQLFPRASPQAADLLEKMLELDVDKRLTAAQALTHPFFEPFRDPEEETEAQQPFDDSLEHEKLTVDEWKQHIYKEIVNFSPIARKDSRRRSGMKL
PDK1, sequence (O15530 whole entry): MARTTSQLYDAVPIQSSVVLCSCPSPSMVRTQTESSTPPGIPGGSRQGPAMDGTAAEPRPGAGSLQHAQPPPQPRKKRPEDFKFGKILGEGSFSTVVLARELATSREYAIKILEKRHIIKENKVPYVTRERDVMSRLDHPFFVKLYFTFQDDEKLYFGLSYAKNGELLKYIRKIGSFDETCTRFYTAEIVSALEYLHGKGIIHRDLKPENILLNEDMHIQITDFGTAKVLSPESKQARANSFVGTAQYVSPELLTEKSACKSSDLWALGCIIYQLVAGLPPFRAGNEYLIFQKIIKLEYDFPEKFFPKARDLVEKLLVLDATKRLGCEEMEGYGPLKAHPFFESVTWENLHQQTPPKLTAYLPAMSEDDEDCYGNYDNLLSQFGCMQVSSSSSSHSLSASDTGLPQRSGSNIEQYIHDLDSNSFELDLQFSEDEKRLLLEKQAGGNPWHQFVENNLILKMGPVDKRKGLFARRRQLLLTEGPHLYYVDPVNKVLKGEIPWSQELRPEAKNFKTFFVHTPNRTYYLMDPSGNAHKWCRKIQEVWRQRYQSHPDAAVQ
FMS, sequence (P07333 20-972, species assumed): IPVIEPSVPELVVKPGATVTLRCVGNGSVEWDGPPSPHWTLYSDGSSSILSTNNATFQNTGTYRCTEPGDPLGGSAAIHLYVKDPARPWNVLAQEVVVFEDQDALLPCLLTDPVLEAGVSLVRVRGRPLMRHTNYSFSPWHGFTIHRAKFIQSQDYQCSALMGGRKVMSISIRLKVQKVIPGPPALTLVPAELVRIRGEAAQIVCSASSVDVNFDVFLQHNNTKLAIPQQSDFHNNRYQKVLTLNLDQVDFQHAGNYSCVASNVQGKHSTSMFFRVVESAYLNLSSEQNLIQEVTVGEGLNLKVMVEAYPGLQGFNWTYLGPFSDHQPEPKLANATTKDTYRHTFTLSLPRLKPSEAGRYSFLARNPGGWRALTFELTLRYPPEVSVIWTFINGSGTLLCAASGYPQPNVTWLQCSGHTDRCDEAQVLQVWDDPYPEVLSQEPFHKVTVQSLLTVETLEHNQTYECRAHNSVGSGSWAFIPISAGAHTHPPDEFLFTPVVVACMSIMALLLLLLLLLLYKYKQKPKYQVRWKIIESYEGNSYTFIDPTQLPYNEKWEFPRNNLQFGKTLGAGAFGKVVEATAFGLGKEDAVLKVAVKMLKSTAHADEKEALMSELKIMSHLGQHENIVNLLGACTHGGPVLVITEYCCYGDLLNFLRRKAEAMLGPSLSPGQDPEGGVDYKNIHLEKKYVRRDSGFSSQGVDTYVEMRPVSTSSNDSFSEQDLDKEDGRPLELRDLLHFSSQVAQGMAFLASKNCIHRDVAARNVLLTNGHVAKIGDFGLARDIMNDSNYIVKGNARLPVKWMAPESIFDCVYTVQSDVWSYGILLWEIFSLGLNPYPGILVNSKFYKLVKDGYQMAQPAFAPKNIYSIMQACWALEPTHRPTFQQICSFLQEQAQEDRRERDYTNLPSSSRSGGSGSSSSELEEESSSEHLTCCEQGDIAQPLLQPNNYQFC
MST4, sequence (Q9P289 whole entry, species assumed): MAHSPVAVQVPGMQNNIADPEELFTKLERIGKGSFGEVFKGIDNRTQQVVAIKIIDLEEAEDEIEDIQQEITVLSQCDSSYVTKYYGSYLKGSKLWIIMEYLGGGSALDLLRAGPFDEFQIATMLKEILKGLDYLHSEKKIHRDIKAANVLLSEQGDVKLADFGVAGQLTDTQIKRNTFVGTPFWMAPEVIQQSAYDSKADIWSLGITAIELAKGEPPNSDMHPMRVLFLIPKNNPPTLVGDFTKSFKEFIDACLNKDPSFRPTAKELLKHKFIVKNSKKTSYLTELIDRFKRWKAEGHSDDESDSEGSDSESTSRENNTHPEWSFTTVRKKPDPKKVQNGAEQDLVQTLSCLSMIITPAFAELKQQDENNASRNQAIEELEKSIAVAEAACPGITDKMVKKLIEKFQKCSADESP
PAK3, sequence (O75914 whole entry, species assumed): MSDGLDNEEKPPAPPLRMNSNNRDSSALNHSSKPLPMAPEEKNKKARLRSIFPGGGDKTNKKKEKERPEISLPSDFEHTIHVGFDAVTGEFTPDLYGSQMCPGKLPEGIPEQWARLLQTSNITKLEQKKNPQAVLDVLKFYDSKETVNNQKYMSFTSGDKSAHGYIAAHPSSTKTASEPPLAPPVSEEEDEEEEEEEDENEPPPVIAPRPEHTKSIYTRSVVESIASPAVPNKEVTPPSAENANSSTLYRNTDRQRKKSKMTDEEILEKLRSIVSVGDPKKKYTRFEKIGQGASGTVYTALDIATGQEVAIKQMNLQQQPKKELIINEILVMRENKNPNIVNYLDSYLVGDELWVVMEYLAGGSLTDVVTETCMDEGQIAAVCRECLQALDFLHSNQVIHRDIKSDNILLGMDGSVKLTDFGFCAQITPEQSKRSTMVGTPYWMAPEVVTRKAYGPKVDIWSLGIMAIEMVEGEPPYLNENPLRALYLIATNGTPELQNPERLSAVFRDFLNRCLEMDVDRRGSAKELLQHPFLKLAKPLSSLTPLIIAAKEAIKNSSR

CCOC(=O)C[C@@H]1C(O[Si](C)(C)C(C)(C)C)[C@H](n2cnc3c(NC(=O)Nc4ccccc4)ncnc32)O[C@@H]1CNC(=O)NC (some centres unmarked) [Compound 10]
% Activity Change [1]: 30%
% Activity Change [2]: −1%
% Activity Change [3]: 524%
% Activity Change [4]: −17%
% Activity Change [5]: 12%
% Activity Change [6]: −3%
% Activity Change [7]: −4%
% Activity Change [8]: 9%
% Activity Change [9]: −20%
% Activity Change [10]: −1%
% Activity Change [11]: 36%
% Activity Change [12]: 36%
% Activity Change [13]: 16%
% Activity Change [14]: −2%
% Activity Change [15]: 27%
% Activity Change [16]: 8%
% Activity Change [17]: 52%
% Activity Change [18]: 2%
% Activity Change [19]: 4%
% Activity Change [20]: 4%
% Activity Change [21]: 4%
% Activity Change [22]: 6%
% Activity Change [23]: 8%
% Activity Change [24]: 47%
% Activity Change [25]: −3%
% Activity Change [26]: −2%
% Activity Change [27]: 2%
% Activity Change [28]: 2%
% Activity Change [29]: 5%
